Source: publication PMC6063448, “Antimicrobial activity of linear lipopeptides derived from BP100 towards plant pathogens” (PLoS ONE, 2018)

Tests used:
Type in all cases: cell-based
[1] = tested on: Erwinia amylovora PMV6076; assay: MIC, growth inhibition in microtiter plates (TSB); conditions: Ea, 25°C, 48 h, OD 600 nm, lowest concentration with no growth, given as interval of tested concentrations, three replicates, experiment repeated twice
Source text: (§1) The following plant pathogenic bacterial strains were used: Erwinia amylovora PMV6076 (Institut National de la Recherche Agronomique, Angers, France), Pseudomonas syringae pv. syringae EPS94 (Institut de Tecnologia Agroalimentària, Universitat de Girona, Spain), Xanthomonas axonopodis pv. vesicatoria 2133–2, Pseudomonas syringae pv. actinidiae Psa3700.1.1, Xanthomonas fragariae Xf349-9A (Instituto Valenciano de Investigaciones Agrarias, Valencia, Spain), and Xanthomonas arboricola pv. pruni CFBP5563 (Collection Française de Bactéries associées aux Plantes, Angers, France). All bacteria except for X. fragariae were stored in Luria Bertani (LB) broth supplemented with glycerol (20%) and maintained at -80°C. For X. fragariae, Medium B [46] was used instead of LB. E. amylovora, X. arboricola pv. pruni, P. syringae pv. syringae and P. syringae pv. actinidiae were scrapped from the agar media after growing for 24 h at 25°C, and X. axonopodis pv. vesicatoria and X. fragariae after growing for 48 h at 25°C. The cell material was suspended in sterile water to obtain a suspension of 10^8 CFU mL^-1.
(§2) Lyophilized peptides were solubilized in sterile Milli-Q water to a final concentration of 1 mM and filter sterilized through a 0.22-μm pore filter. […] For antibacterial activity 20 μL of each dilution were mixed in a microtiter plate well with 20 μL of the corresponding suspension of the bacterial indicator, 160 μL of Trypticase Soy Broth (TSB) (BioMèrieux, France) to a total volume of 200 μL. For antifungal activity 20 μL of each stock solution were mixed in a microtiter plate well with 80 μL of the corresponding suspension of the fungal pathogen and 100 μL of double concentrated Potato Dextrose Broth (PDB) to a total volume of 200 μL containing 0.003% w/v of chloramphenicol to prevent bacterial contamination.
(§3) Three replicates for each combination of strain, compound and concentration were used. Microbial growth was determined by optical density measurement at 600 nm (Bioscreen C, Labsystem, Helsinki, Finland). For antibacterial activity microplates were incubated at 25°C with 20 s shaking before hourly absorbance measurement for 48 h. For antifungal activity microplates were incubated at 22°C with 1 min shaking before absorbance measurement that were done every two hours during seven days. The experiment was repeated twice. The MIC was taken as the lowest compound concentration with no growth at the end of the experiment.

[2] = tested on: Pseudomonas syringae pv. actinidiae Psa3700.1.1; assay: MIC, growth inhibition in microtiter plates (TSB); conditions: Psa, 25°C, 48 h, OD 600 nm, lowest concentration with no growth, given as interval of tested concentrations, three replicates, experiment repeated twice
Source text: as §1, §2, §3

[3] = tested on: Pseudomonas syringae pv. syringae EPS94; assay: MIC, growth inhibition in microtiter plates (TSB); conditions: Pss, 25°C, 48 h, OD 600 nm, lowest concentration with no growth, given as interval of tested concentrations, three replicates, experiment repeated twice
Source text: as §1, §2, §3

[4] = tested on: Xanthomonas arboricola pv. pruni CFBP5563; assay: MIC, growth inhibition in microtiter plates (TSB); conditions: Xap, 25°C, 48 h, OD 600 nm, lowest concentration with no growth, given as interval of tested concentrations, three replicates, experiment repeated twice
Source text: as §1, §2, §3

[5] = tested on: Xanthomonas axonopodis pv. vesicatoria 2133–2; assay: MIC, growth inhibition in microtiter plates (TSB); conditions: Xav, 25°C, 48 h, OD 600 nm, lowest concentration with no growth, given as interval of tested concentrations, three replicates, experiment repeated twice
Source text: as §1, §2, §3

[6] = tested on: Xanthomonas fragariae Xf349-9A; assay: MIC, growth inhibition in microtiter plates (TSB); conditions: Xf, 25°C, 48 h, OD 600 nm, lowest concentration with no growth, given as interval of tested concentrations, three replicates, experiment repeated twice
Source text: as §1, §2, §3

[7] = tested on: Fusarium oxysporum f. sp. lycopersici FOL 3 race 2; assay: MIC, antifungal growth inhibition in microtiter plates (PDB); conditions: Fo, 22°C, seven days, OD 600 nm, lowest concentration with no growth, given as interval of tested concentrations, three replicates, experiment repeated twice
Protocol: (§4) The following plant pathogenic fungal strains were used: Penicillium expansum EPS26 (Institut de Tecnologia Agroalimentària, Universitat de Girona, Spain) and Fusarium oxysporum f. sp. lycopersici FOL 3 race 2 (ATCC 201829, American Type Culture Collection,Virginia, EEUU). Strains were cultured on potato dextrose agar (PDA) plates (Difco). Conidia from P. expansum and microconidia from F. oxysporum were obtained from 5–7 day-old agar Potato Dextrose (PDA) cultures after growth at 25°C. Inoculum was prepared by scraping spore material from culture surfaces with a cotton swab and resuspending it in distilled water containing 0.5‰ of tween 80. The suspensions were filtered through Miracloth (Merk, Millipore) and the concentration of conidia was determined using a hemacytometer and adjusted to 10^4 conidia mL^-1 for F. oxysporum and to 10^3 conidia mL^-1 for P. expansum.
as §2, §3

[8] = tested on: Penicillium expansum EPS26; assay: as above; conditions: Pe, 22°C, seven days, OD 600 nm, lowest concentration with no growth, given as interval of tested concentrations, three replicates, experiment repeated twice
Protocol: as §4, §2, §3

Structure (SMILES)	MIC [1]	MIC [2]	MIC [3]	MIC [4]	MIC [5]	MIC [6]	MIC [7]	MIC [8]
CCCCCC(=O)NCCCC[C@H](NC(=O)[C@H](CCCCN)NC(C)=O)C(=O)N[C@@H](CC(C)C)C(=O)N[C@@H](Cc1ccccc1)C(=O)N[C@@H](CCCCN)C(=O)N[C@@H](CCCCN)C(=O)N[C@H](C(=O)N[C@@H](CC(C)C)C(=O)N[C@@H](CCCCN)C(=O)N[C@@H](Cc1ccc(O)cc1)C(=O)N[C@@H](CC(C)C)C(N)=O)[C@@H](C)CC [BP369, Ac-KK(COC5H11)LFKKILKYL-NH2]	6.2 to 12.5 µM	3.1 to 6.2 µM	6.2 to 12.5 µM	0.8 to 1.6 µM	3.1 to 6.2 µM	3.1 to 6.2 µM	0.4 to 0.8 µM	1.6 to 3.1 µM
CCCCCCCCCCCC(=O)NCCCC[C@H](NC(=O)[C@H](CCCCN)NC(=O)[C@H](CC(C)C)NC(=O)[C@@H](NC(=O)[C@H](CCCCN)NC(=O)[C@H](CCCCN)NC(=O)[C@H](Cc1ccccc1)NC(=O)[C@H](CC(C)C)NC(=O)[C@H](CCCCN)NC(=O)[C@H](CCCCN)NC(C)=O)[C@@H](C)CC)C(=O)N[C@@H](CC(C)C)C(N)=O [BP401, Ac-KKLFKKILKK(COC11H23)L-NH2]	>25 µM	6.2 to 12.5 µM	6.2 to 12.5 µM	1.6 to 3.1 µM	0.8 to 1.6 µM	3.1 to 6.2 µM	6.2 to 12.5 µM	12.5 to 25 µM
CCCCCCCCCCCC(=O)NCCCC[C@H](NC(=O)[C@H](Cc1ccccc1)NC(=O)[C@H](CC(C)C)NC(=O)[C@H](CCCCN)NC(=O)[C@H](CCCCN)NC(C)=O)C(=O)N[C@@H](CCCCN)C(=O)N[C@H](C(=O)N[C@@H](CC(C)C)C(=O)N[C@@H](CCCCN)C(=O)N[C@@H](Cc1ccc(O)cc1)C(=O)N[C@@H](CC(C)C)C(N)=O)[C@@H](C)CC [BP396, Ac-KKLFK(COC11H23)KILKYL-NH2]	>25 µM	>25 µM	>25 µM	1.6 to 3.1 µM	3.1 to 6.2 µM	1.6 to 3.1 µM	6.2 to 12.5 µM	12.5 to 25 µM
CCCCCCCCCCCC(=O)NCCCC[C@H](NC(=O)[C@H](Cc1ccc(O)cc1)NC(=O)[C@H](CCCCN)NC(=O)[C@H](CC(C)C)NC(=O)[C@@H](NC(=O)[C@H](CCCCN)NC(=O)[C@H](CCCCN)NC(=O)[C@H](Cc1ccccc1)NC(=O)[C@H](CC(C)C)NC(=O)[C@H](CCCCN)NC(=O)[C@H](CCCCN)NC(C)=O)[C@@H](C)CC)C(N)=O [BP402, Ac-KKLFKKILKYK(COC11H23)-NH2]	3.1 to 6.2 µM	3.1 to 6.2 µM	3.1 to 6.2 µM	1.6 to 3.1 µM	1.6 to 3.1 µM	3.1 to 6.2 µM	6.2 to 12.5 µM	12.5 to 25 µM
CCCCCC(=O)NCCCC[C@H](NC(=O)[C@H](CCCCN)NC(=O)[C@H](Cc1ccccc1)NC(=O)[C@H](CC(C)C)NC(=O)[C@H](CCCCN)NC(=O)[C@H](CCCCN)NC(C)=O)C(=O)N[C@H](C(=O)N[C@@H](CC(C)C)C(=O)N[C@@H](CCCCN)C(=O)N[C@@H](Cc1ccc(O)cc1)C(=O)N[C@@H](CC(C)C)C(N)=O)[C@@H](C)CC [BP373, Ac-KKLFKK(COC5H11)ILKYL-NH2]	3.1 to 6.2 µM	3.1 to 6.2 µM	6.2 to 12.5 µM	3.1 to 6.2 µM	6.2 to 12.5 µM	3.1 to 6.2 µM	0.4 to 0.8 µM	3.1 to 6.2 µM
CCCCCCCCCCCC(=O)NCCCC[C@H](NC(=O)[C@H](CCCCN)NC(=O)[C@H](CCCCN)NC(=O)[C@H](Cc1ccccc1)NC(=O)[C@H](CC(C)C)NC(=O)[C@H](CCCCN)NC(=O)[C@H](CCCCN)NC(C)=O)C(=O)N[C@@H](CC(C)C)C(=O)N[C@@H](CCCCN)C(=O)N[C@@H](Cc1ccc(O)cc1)C(=O)N[C@@H](CC(C)C)C(N)=O [BP398, Ac-KKLFKKK(COC11H23)LKYL-NH2]	>25 µM	3.1 to 6.2 µM	3.1 to 6.2 µM	1.6 to 3.1 µM	0.8 to 1.6 µM	3.1 to 6.2 µM	6.2 to 12.5 µM	>25 µM
CCCCCCCCCCCC(=O)N[C@@H](CCCCN)C(=O)N[C@@H](CCCCN)C(=O)N[C@@H](CC(C)C)C(=O)N[C@@H](Cc1ccccc1)C(=O)N[C@@H](CCCCN)C(=O)N[C@@H](CCCCN)C(=O)N[C@H](C(=O)N[C@@H](CC(C)C)C(=O)N[C@@H](CCCCN)C(=O)N[C@@H](Cc1ccc(O)cc1)C(=O)N[C@@H](CC(C)C)C(N)=O)[C@@H](C)CC [BP391, C11H23CO-KKLFKKILKYL-NH2]	>25 µM	>25 µM	>25 µM	6.2 to 12.5 µM	6.2 to 12.5 µM	3.1 to 6.2 µM	12.5 to 25 µM	>25 µM
CCCC(=O)N[C@@H](CCCCN)C(=O)N[C@@H](CCCCN)C(=O)N[C@@H](CC(C)C)C(=O)N[C@@H](Cc1ccccc1)C(=O)N[C@@H](CCCCN)C(=O)N[C@@H](CCCCN)C(=O)N[C@H](C(=O)N[C@@H](CC(C)C)C(=O)N[C@@H](CCCCN)C(=O)N[C@@H](Cc1ccc(O)cc1)C(=O)N[C@@H](CC(C)C)C(N)=O)[C@@H](C)CC [BP379, C3H7CO-KKLFKKILKYL-NH2]	3.1 to 6.2 µM	3.1 to 6.2 µM	3.1 to 6.2 µM	3.1 to 6.2 µM	3.1 to 6.2 µM	3.1 to 6.2 µM	3.1 to 6.2 µM	6.2 to 12.5 µM
CCCCCCCCCCCC(=O)NCCCC[C@H](NC(C)=O)C(=O)N[C@@H](CCCCN)C(=O)N[C@@H](CC(C)C)C(=O)N[C@@H](Cc1ccccc1)C(=O)N[C@@H](CCCCN)C(=O)N[C@@H](CCCCN)C(=O)N[C@H](C(=O)N[C@@H](CC(C)C)C(=O)N[C@@H](CCCCN)C(=O)N[C@@H](Cc1ccc(O)cc1)C(=O)N[C@@H](CC(C)C)C(N)=O)[C@@H](C)CC [BP392, Ac-K(COC11H23)KLFKKILKYL-NH2]	>25 µM	>25 µM	>25 µM	3.1 to 6.2 µM	3.1 to 6.2 µM	0.8 to 1.6 µM	6.2 to 12.5 µM	>25 µM
CCCCCCCCCCCC(=O)NCCCC[C@H](NC(=O)[C@H](CCCCN)NC(=O)[C@H](CCCCN)NC(C)=O)C(=O)N[C@@H](Cc1ccccc1)C(=O)N[C@@H](CCCCN)C(=O)N[C@@H](CCCCN)C(=O)N[C@H](C(=O)N[C@@H](CC(C)C)C(=O)N[C@@H](CCCCN)C(=O)N[C@@H](Cc1ccc(O)cc1)C(=O)N[C@@H](CC(C)C)C(N)=O)[C@@H](C)CC [BP394, Ac-KKK(COC11H23)FKKILKYL-NH2]	12.5 to 25 µM	6.2 to 12.5 µM	6.2 to 12.5 µM	1.6 to 3.1 µM	1.6 to 3.1 µM	0.8 to 1.6 µM	6.2 to 12.5 µM	12.5 to 25 µM
